Experimental data published in patent US10730874B2 (Shire Human Genetic Therapies, Inc., priority 2018, dated 2020).
pEC50: −log10 of the molar value. Where two headings read alike, the source gives them in different places.

Biological target: human activated kallikrein enzyme (plasma kallikrein) (Homo sapiens (Human), UniProt P03952)
Experiment: Inhibition of human activated plasma kallikrein, fluorogenic peptide substrate assay, 500 pM enzyme format
Type: biochemical
Conditions: read-out: Primary Dose Response Assay: Average EC50
Summary of the method: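 Buffer 20 mM Tris pH 7.5, EDTA, NaCl, PEG-400, Triton X-100; 300 uM Pro-Phe-Arg-AMC; enzyme–inhibitor preincubation 30 min RT. Format one: 500 pM kallikrein, 10 min RT reaction; format two: 5 pM kallikrein, 18 h RT reaction. Fluorescence read at 460 nm (380 nm excitation).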

[1] = 500 pM activated kallikrein enzyme, 300 uM Pro-Phe-Arg-7-amido-4-methylcoumarin substrate, 30 min preincubation, 10 min at RT
[2] = comparative compounds (Table II), assay format with 500 pM (500 μM in the source) activated kallikrein

Chain of human activated kallikrein enzyme (plasma kallikrein) (P03952 391-638): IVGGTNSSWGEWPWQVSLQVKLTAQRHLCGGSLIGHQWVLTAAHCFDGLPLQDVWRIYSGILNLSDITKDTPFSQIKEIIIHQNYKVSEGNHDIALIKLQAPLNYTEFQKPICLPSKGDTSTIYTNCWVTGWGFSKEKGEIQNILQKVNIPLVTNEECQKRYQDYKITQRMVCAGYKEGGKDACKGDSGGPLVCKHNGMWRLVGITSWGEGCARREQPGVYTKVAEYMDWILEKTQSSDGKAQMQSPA
Chain of human activated kallikrein enzyme (plasma kallikrein) (P03952 20-390 partner): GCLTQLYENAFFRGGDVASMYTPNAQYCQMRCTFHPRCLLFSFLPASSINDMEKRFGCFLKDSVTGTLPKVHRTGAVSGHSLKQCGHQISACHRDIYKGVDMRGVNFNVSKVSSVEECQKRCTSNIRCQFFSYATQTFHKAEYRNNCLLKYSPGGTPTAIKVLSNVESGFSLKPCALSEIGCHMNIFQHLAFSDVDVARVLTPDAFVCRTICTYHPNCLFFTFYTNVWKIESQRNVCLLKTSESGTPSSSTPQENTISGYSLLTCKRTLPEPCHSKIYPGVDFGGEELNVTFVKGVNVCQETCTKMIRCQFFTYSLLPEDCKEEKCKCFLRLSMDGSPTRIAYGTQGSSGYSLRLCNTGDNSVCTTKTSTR

| pEC50 [1] | pEC50 [2] | Structure (SMILES) |
| --- | --- | --- |
| 5.70 to 7.00 | – | O=C(NCc1ncn2ccc(Cl)c(F)c12)c1cn(Cc2nc3ccccn3n2)nn1 [Example I-287, 1-([1,2,4]triazolo[1,5-a]pyridin-2-ylmethyl)-N-((7-chloro-8-fluoroimidazo[1,5-a]pyridin-1-yl)methyl)-1H-1,2,3-triazole-4-carboxamide] |
| > 9.00 | – | O=C(NCc1ncn2ccc(Cl)c(F)c12)c1cn(Cc2cn3nc(C4CC4)ccc3n2)cn1 [Example I-288, N-((7-chloro-8-fluoroimidazo[1,5-a]pyridin-1-yl)methyl)-1-((6-cyclopropylimidazo[1,2-b]pyridazin-2-yl)methyl)-1H-imidazole-4-carboxamide] |
| > 9.00 | – | O=C(NCc1ncn2ccc(Cl)c(F)c12)c1nnn(Cc2cn3nc(C4CC4)ccc3n2)n1 [Example I-289, N-((7-chloro-8-fluoroimidazo[1,5-a]pyridin-1-yl)methyl)-2-((6-cyclopropylimidazo[1,2-b]pyridazin-2-yl)methyl)-2H-tetrazole-5-carboxamide] |
| 7.00 to 8.00 | – | O=C(NCc1ncn2ccc(Cl)c(F)c12)c1cn(Cc2cn3ncccc3n2)nn1 [Example I-290, N-((7-chloro-8-fluoroimidazo[1,5-a]pyridin-1-yl)methyl)-1-(imidazo[1,2-b]pyridazin-2-ylmethyl)-1H-1,2,3-triazole-4-carboxamide] |
| 7.00 to 8.00 | – | O=C(NCc1ncn2ccc(Cl)c(F)c12)c1cn(Cc2cn3ncccc3n2)cn1 [Example I-291, N-((7-chloro-8-fluoroimidazo[1,5-a]pyridin-1-yl)methyl)-1-(imidazo[1,2-b]pyridazin-2-ylmethyl)-1H-imidazole-4-carboxamide] |
| 7.00 to 8.00 | – | O=C(NCc1ncn2ccc(Cl)c(F)c12)c1cnn(Cc2ccc3nccnc3c2)c1 [Example I-293, N-((7-chloro-8-fluoroimidazo[1,5-a]pyridin-1-yl)methyl)-1-(quinoxalin-6-ylmethyl)-1H-pyrazole-4-carboxamide] |
| 7.00 to 8.00 | – | O=C(NCc1ncn2ccc(Cl)c(F)c12)c1cn(Cc2cn3nccc(-n4cnnc4)c3n2)nn1 [Example I-294, 1-((8-(4H-1,2,4-triazol-4-yl)imidazo[1,2-b]pyridazin-2-yl)methyl)-N-((7-chloro-8-fluoroimidazo[1,5-a]pyridin-1-yl)methyl)-1H-1,2,3-triazole-4-carboxamide] |
| > 9.00 | – | O=C(NCc1ncn2ccc(Cl)c(F)c12)c1cn(Cc2cn3cc(C4CC4)cc(CN4CCCC4)c3n2)nn1 [Example I-295, N-((7-chloro-8-fluoroimidazo[1,5-a]pyridin-1-yl)methyl)-1-((6-cyclopropyl-8-(pyrrolidin-1-ylmethyl)imidazo[1,2-a]pyridin-2-yl)methyl)-1H-1,2,3-triazole-4-carboxamide] |
| 7.00 to 8.00 | – | O=C(NCc1ncn2ccc(Cl)c(F)c12)c1cn(Cc2cn3nccc(CC4COC4)c3n2)nn1 [Example I-296, N-((7-chloro-8-fluoroimidazo[1,5-a]pyridin-1-yl)methyl)-1-((8-(oxetan-3-ylmethyl)imidazo[1,2-b]pyridazin-2-yl)methyl)-1H-1,2,3-triazole-4-carboxamide] |
| 7.00 to 8.00 | – | O=C(NCc1ncn2ccc(Cl)c(F)c12)c1cn(Cc2cn3ccccc3n2)cn1 [Example I-297, N-((7-chloro-8-fluoroimidazo[1,5-a]pyridin-1-yl)methyl)-1-(imidazo[1,2-a]pyridin-2-ylmethyl)-1H-imidazole-4-carboxamide] |
| > 9.00 | – | NCc1cc(C2CC2)cn2cc(Cn3cc(C(=O)NCc4ncn5ccc(Cl)c(F)c45)nn3)nc12 [Example I-298, 1-((8-(aminomethyl)-6-cyclopropylimidazo[1,2-a]pyridin-2-yl)methyl)-N-((7-chloro-8-fluoroimidazo[1,5-a]pyridin-1-yl)methyl)-1H-1,2,3-triazole-4-carboxamide] |
| > 9.00 | – | CN(C)CCOCc1cc(C2CC2)cn2cc(Cn3cc(C(=O)NCc4ncn5ccc(Cl)c(F)c45)nn3)nc12 [Example I-299, N-((7-chloro-8-fluoroimidazo[1,5-a]pyridin-1-yl)methyl)-1-((6-cyclopropyl-8-((2-(dimethylamino)ethoxy)methyl)imidazo[1,2-a]pyridin-2-yl)methyl)-1H-1,2,3-triazole-4-carboxamide] |
| > 9.00 | – | O=C(NCc1ncn2ccc(Cl)c(F)c12)c1cn(Cc2cn3cc(C4CC4)cc(CNCC(O)C(F)(F)F)c3n2)nn1 (stereo not drawn) [Example I-300, N-((7-chloro-8-fluoroimidazo[1,5-a]pyridin-1-yl)methyl)-1-((6-cyclopropyl-8-(((3,3,3-trifluoro-2-hydroxypropyl)amino)methyl)imidazo[1,2-a]pyridin-2-yl)methyl)-1H-1,2,3-triazole-4-carboxamide] |
| > 9.00 | – | O=C(NCc1ncn2ccc(Cl)c(F)c12)c1cn(Cc2cn3cc(C4CC4)cc(COCCO)c3n2)nn1 [Example I-301, N-((7-chloro-8-fluoroimidazo[1,5-a]pyridin-1-yl)methyl)-1-((6-cyclopropyl-8-((2-hydroxyethoxy)methyl)imidazo[1,2-a]pyridin-2-yl)methyl)-1H-1,2,3-triazole-4-carboxamide] |
| > 9.00 | – | NCCOCc1cc(C2CC2)cn2cc(Cn3cc(C(=O)NCc4ncn5ccc(Cl)c(F)c45)nn3)nc12 [Example I-302, 1-((8-((2-aminoethoxy)methyl)-6-cyclopropylimidazo[1,2-a]pyridin-2-yl)methyl)-N-((7-chloro-8-fluoroimidazo[1,5-a]pyridin-1-yl)methyl)-1H-1,2,3-triazole-4-carboxamide] |
| > 9.00 | – | O=C(NCc1ncn2ccc(Br)cc12)c1cn(Cc2cn3cc(C4CC4)ccc3n2)nn1 [Example I-303, N-((7-bromoimidazo[1,5-a]pyridin-1-yl)methyl)-1-((6-cyclopropylimidazo[1,2-a]pyridin-2-yl)methyl)-1H-1,2,3-triazole-4-carboxamide] |
| – | 7.00 to 8.00 | O=C(NCc1ncn2ccc(Cl)cc12)c1ccnc(Cc2ccc3ncc(Cl)cc3c2)c1 [drawing 399, reference compound] |
| – | 5.70 to 7.00 | O=C(NCc1ncn2ccc(C3CC3)cc12)c1cnn(Cc2cn3cc(C4CC4)ccc3n2)c1 [drawing 403, reference compound] |
| – | 7.00 to 8.00 | COCc1nn(Cc2ccc(Cn3ccccc3=O)cc2)cc1C(=O)NCc1c(F)ccc(OC)c1F [reference compound] |
| – | 8.00 to 9.00 | COCc1nn(Cc2ccc(N3CCCC3)nc2)cc1C(=O)NCc1c(-n2cnnn2)ccc(OC)c1F [reference compound] |
| – | 8.00 to 9.00 | COCc1nn(Cc2ccc(Cn3ccccc3=O)cc2)cc1C(=O)NCc1c(C#N)ccc(OC)c1F [reference compound] |
| – | 7.00 to 8.00 | O=C(NCc1nsc2ccc(Cl)cc12)c1cnn(Cc2cn3cc(C4CC4)ccc3n2)c1 [reference compound] |
| – | 5.70 to 7.00 | O=C(NCc1nnc2ccc(Cl)cn12)c1cnn(Cc2cn3cc(C4CC4)ccc3n2)c1 [reference compound] |
| – | 5.70 to 7.00 | Cc1ccc2nc(Cn3cc(C(=O)NCc4cnc5ccc(Cl)cn45)cn3)cn2c1 [reference compound] |
